Test results from article PMC6509186, “Nontypeable Haemophilus influenzae Has Evolved Preferential Use of N-Acetylneuraminic Acid as a Host Adaptation” (mBio, 2019).
pKd: −log10 of the molar value. Read-outs that look alike come from different tables or passages of the source.

Target: T1, CMP-Neu5Ac synthetase (SiaB) (Haemophilus influenzae, UniProt Q57140)
T1 construct: gene neuA; full-length siaB in pET51-Ek/LIC, N-terminal 6xHis tag (so in the source) kept; expressed in E. coli, Talon purified; 24,800 Da; amine-coupled to CM5 chip
Test: surface plasmon resonance, immobilised SiaB
Assay type: binding

[1] = 20 mM MgCl2, 0.2 M MOPS, pH 8.1, 37°C, enzyme amine-coupled to CM5 chip

Structure (SMILES) | pKd | pKd [1]
Nc1ccn([C@@H]2O[C@H](COP(=O)(O)OP(=O)(O)OP(=O)(O)O)[C@@H](O)[C@H]2O)c(=O)n1 [CTP] | < 3.70 | –
CC(=O)N[C@H]1[C@H]([C@H](O)[C@H](O)CO)OC(O)(C(=O)O)C[C@@H]1O (stereo partly drawn) [Neu5Ac] | – | 8.92
O=C(CO)N[C@H]1[C@H]([C@H](O)[C@H](O)CO)OC(O)(C(=O)O)C[C@@H]1O (stereo partly drawn) [Neu5Gc] | – | 6.00
